Experiments:
legumain [1] = target: T1, legumain (Homo sapiens, UniProt Q99538); assay: Fluorogenic continuous rate assay of legumain activity, substrate Z-Ala-Ala-Asn-AMC (kobs/[I]); assay type: biochemical; details: for kobs/[l] (second-order rate constant for the inactivation of legumain): substrate Z-Ala-Ala-Asn-AMC, 37° C. or 30° C., sodium citrate buffer, 1 mM dithiothreitol, 1 mM EDTA, approximate second-order inactivation constants
T1 sequence (Q99538 18-323): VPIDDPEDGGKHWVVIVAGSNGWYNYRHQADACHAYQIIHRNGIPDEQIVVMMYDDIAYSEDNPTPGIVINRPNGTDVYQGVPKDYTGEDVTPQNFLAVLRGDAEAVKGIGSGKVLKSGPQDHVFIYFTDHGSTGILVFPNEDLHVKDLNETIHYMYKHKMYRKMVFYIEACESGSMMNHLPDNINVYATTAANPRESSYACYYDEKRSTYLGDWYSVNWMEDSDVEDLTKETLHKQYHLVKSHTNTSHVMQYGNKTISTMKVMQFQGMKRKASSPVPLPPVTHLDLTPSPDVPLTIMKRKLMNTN
Experimental: The legumain activity was determined in a fluorogenic continuos rate assay using the substrate Z-Ala-Ala-Asn-AMC on a Kontron spectrofluorometer SFM25 (exitation 380; emission 460) equipped with a four cell changer and controlled by an IBM-compatible personal computer. The obtained data were analyzed with the software FLUCOL^(38). The assay were done at 37° C. or 30° C., using a sodium citrate buffer (39.5 mM citric acid/121 mM Na2HPO4) containing 1 mM dithiothreitol and 1 mM EDTA. Additionally, 0.1% (w/v) Chaps or 0.015% (w/v) Brij 35 was added.
The inhibition progress curves were analyzed using non-linear curve fitting software Prism Graph Pad to compute the kobs values. Approximate second-order inactivation constants (kobs/[I]) were calculated for all compounds.

legumain [2] = target: T1, legumain; assay: Determination of Ki-values, legumain, substrate Z-Ala-Ala-Asn-AMC; assay type: biochemical; details: HEPES pH 7.6, 30° C.; substrate 0.05, 0.1, 0.2 and 0.4 mM
Experimental: 100 μl inhibitor stock solution were mixed with 100 μl buffer (HEPES pH 7.6) and 50 μl substrate Z-Ala-Ala-Asn-AMC and preincubated at 30° C. Reaction was started by addition of 20 μl enzyme solution. Formation of the product AMC was measured on a Kontron spectrofluorometer SFM25 (exitation 380; emission 460) and slopes were calculated. Legumain activity was measured at final substrate concentrations of 0.05, 0.1, 0.2, and 0.4 mM and further 7 inhibitor concentrations covering the IC50 concentration. Calculations were performed using the GraFit 4.0.13 (Erithacus) Software.

| Compound | kobs/[l] (second-order rate constant for the inactivation of legumain) (legumain [1]) | also measured |
| --- | --- | --- |
| COC(=O)/C=C/[C@H](CC(N)=O)NC(=O)[C@H](C)NC(=O)[C@H](C)NC(=O)OCc1ccccc1 [Compound 5, Methyl (S)-(E)-4-[Cbz-L-Ala-L-Ala]amino-6-amino-6-oxo-2-hexenoate] | 543 M⁻¹ s⁻¹ |  |
| CCOC(=O)/C=C/[C@H](CC(N)=O)NC(=O)[C@H](C)NC(=O)[C@H](C)NC(=O)OCc1ccccc1 [Compound 6, Ethyl (S)-(E)-4-[Cbz-L-Ala-L-Ala]amino-6-amino-6-oxo-2-hexenoate] | 456 M⁻¹ s⁻¹ |  |
| C=CCOC(=O)/C=C/[C@H](CC(N)=O)NC(=O)[C@H](C)NC(=O)[C@H](C)NC(=O)OCc1ccccc1 [Compound 7, Allyl (S)-(E)-4-[Cbz-L-Ala-L-Ala]amino-6-amino-6-oxo-2-hexenoate] | 776 M⁻¹ s⁻¹ |  |
| CC(NC(=O)OCc1ccccc1)C(=O)NC(C)C(=O)N[C@H](/C=C/C(=O)O)CC(N)=O (stereo partly drawn) [Compound 8, (S)-(E)-4-[Cbz-L-Ala-L-Ala]amino-6-amino-6-oxo-2-hexenoic acid] | 4 M⁻¹ s⁻¹ |  |
| COC(=O)/C(C)=C/[C@H](CC(N)=O)NC(=O)C(C)NC(=O)C(C)NC(=O)OCc1ccccc1 (stereo partly drawn) [Compound 9, Methyl (S)-(E)-4-[Cbz-L-Ala-L-Ala]amino-6-amino-2-methyl-6-oxo-2-hexenoate] | 2 M⁻¹ s⁻¹ |  |
| CCOC(=O)/C(C)=C/[C@H](CC(N)=O)NC(=O)C(C)NC(=O)C(C)NC(=O)OCc1ccccc1 (stereo partly drawn) [Compound 10, Ethyl (S)-(E)-4-[Cbz-L-Ala-L-Ala]amino-6-amino-2-methyl-6-oxo-2-hexenoate] | 2 M⁻¹ s⁻¹ |  |
| C/C(=C\[C@H](CC(N)=O)NC(=O)[C@H](C)NC(=O)[C@H](C)NC(=O)OCc1ccccc1)C(=O)O [Compound 11, (S)-(E)-4-[Cbz-L-Ala-L-Ala]amino-6-amino-2-methyl-6-oxo-2-hexenoic acid] | <1 M⁻¹ s⁻¹ |  |
| CC(NC(=O)OCc1ccccc1)C(=O)NC(C)C(=O)NN(CC(N)=O)C(=O)CCl [Compound 18, 2-[2-(Cbz-L-Ala-L-Ala)-1-(chloroacetyl)hydrazino]acetamide] | 139088 M⁻¹ s⁻¹ | second-order rate constant for the inactivation of legumain, fold higher than that of the Michael acceptor inhibitors (legumain [1]; compared with the Michael acceptor inhibitors): approximately 200 fold |
| C[C@H](NC(=O)OCc1ccccc1)C(=O)N[C@@H](C)C(=O)N[C@@H](CC(N)=O)C(=O)NOC(=O)c1ccccc1 [Compound 20, [Cbz-L-Ala-L-Ala-L-Asn]-O-benzoylhydroxamate] |  | Ki (legumain [2]): 3.1 µM |
| C[C@H](NC(=O)OCc1ccccc1)C(=O)N[C@@H](C)C(=O)NN(CC(N)=O)C(=O)CBr [Compound 22, 2-[2-(Cbz-L-Ala-L-Ala)-1-(bromoacetyl)hydrazino]acetamide] | 84000 M⁻¹ s⁻¹ | inhibition of legumain (in words) (legumain [1]): potent inhibitor |
| C[C@H](NC(=O)OCc1ccccc1)C(=O)N[C@@H](C)C(=O)NN(CC(N)=O)C(=O)COC(=O)c1ccccc1 [Compound 24, 2-[2-(Cbz-L-Ala-L-Ala)-1-(benzoyloxyacetyl)hydrazino]acetamide] | 13 M⁻¹ s⁻¹ | inhibition of legumain (in words) (legumain [1]): only moderate inhibition |
| Diethyl [(S)-(E)-3-[Cbz-L-Ala-L-Ala]amino-5-amino-5-oxo-1-petenylphosphate [Compound 13] | <1 M⁻¹ s⁻¹ |  |
| Methyl [(S)-(E)-3-[Cbz-L-Ala-L-Ala]amino-5-amino-5-oxo-1-petene]-sulfonate [Compound 12] | 30 M⁻¹ s⁻¹ |  |

Source: patent US7279550B2, “Irreversible cysteine protease inhibitors of legumain” (Probiodrug AG, priority 2001, dated 2007)
